From US3988456A, “1,2-Diphenylethanolamine derivatives and their salts and the preparation thereof” (Dainippon Pharmaceutical Co., Ltd., priority 1974, dated 1976) come the findings set out here.

Structures can show the parent of a compound that is named as a salt.

The test system of one test is female mice. The test is described as follows: Analgesic activity: Phenylquinone method (chemical pain). Particulars: drugs given 30 minutes before i.p. phenylquinone; for ED50: Mus musculus, po. It is filed as in vivo, mice (ddN strain). The method, then:
ii. Phenylquinone method (cf. E. Siegmund, R. Cadmus and G. Lu, Proc. Soc. Exptl. Biol. Med., Vol. 95, page 729, 1957)
Chemical pain was induced by an intraperitoneal injection of 0.1 ml/10 g body weight of 0.03 % phenylquinone in 5 % aqueous ethanol in female mice, weighing 18 to 22 g of ddN strain. Drugs were given 30 minutes before challenge of phenylquinone.

A further test has as its system male mice of ddN strain. Put plainly: Analgesic activity: D'Amour-Smith method (thermal pain). It is filed as in vivo. Particulars: response time prolonged more than 100 %; for ED50: Mus musculus, sc; for Analgesic ED50 value, D'Amour-Smith method: s.c. As to the method: i. D'Amour-Smith method (cf. F. E. D'Amour and D. L. Smith, J. Pharmacol., Vol. 72, page 74, 1941)
Thermal pain was induced by radiating heat light on the tail blacked with a black ink of male mice of ddN strain, weighing 9 to 12 g, using the modified apparatus of D'Amour-Smith. The analgesic ED50 -value was calculated from the number of positive animals showing the response time prolonged more than 100 % compared with each before value.

For another test, the system named is Male guinea-pigs. Put plainly: Anti-tussive activity (coughs by mechanical stimulation). It is filed as in vivo. The following applies: intraperitoneal; for anti-tussive activity: dose of 5-40 mg/kg; for anti-tussive activity compared with codeine phosphate: vs codeine phosphate. As to the method: 2. Anti-tussive activity (cf. K. Takagi, H. Fukuda and K. Yano, Yakugakuzasshi, Vol. 80, page 1497, 1960)
Male guinea-pigs, weighing 350 to 450 g, were used. Coughs were caused by successive mechanical stimulations with whiskers, and anti-tussive effects were evaluated by all or none of the cough. The Test Compounds F and G were intraperitoneally injected.

One may read the ED50 as the dose at which the effect has come halfway, by size or by number of responders. As for `COc1ccc(CN2CCN([C@H](c3ccc(C)cc3)[C@@H](O)c3ccc(C)cc3)CC2)cc1` (relative stereo) [Test Compound D, dl-Erythro-1-(p-tolyl)-2-(p-tolyl)-2-[4-(p-methoxybenzyl)piperazin-1-yl]ethanol dihydrochloride], the ED50 in the test on female mice was 55.6 mg/kg; in the test on male mice of ddN strain, 98.6 mg/kg.

For the compound `COc1ccc(CN2CCN([C@H](c3ccccc3C)[C@@H](O)c3ccccc3)CC2)cc1` (relative stereo) [Test Compound E, dl-Erythro-1-phenyl-2-(o-tolyl)-2-[4-(p-methoxybenzyl)-piperazin-1-yl]ethanol dihydrochloride], the ED50 with female mice came to 30.2 mg/kg; with male mice of ddN strain, 65.2 mg/kg.

Turning to `COc1ccc(CN2CCN(C(c3ccccc3)C(O)c3ccccc3)CC2)cc1.Cl.Cl` (stereo not drawn) [Test Compound F, d-Erythro-1,2-diphenyl-2-[4-(p-methoxybenzyl)piperazin-1-yl]ethanol dihydrochloride], the “Analgesic ED50 value, Phenylquinone method” value with female mice (p.o.) came out at 63.2 mg/kg. The “Analgesic ED50 value, D'Amour-Smith method” value in the test with male mice of ddN strain stood at 37.2 mg/kg. Moreover, in the test with Male guinea-pigs, the anti-tussive activity entry is given as “excellent anti-tussive activity in a dose of 5-40 mg/kg” and the “anti-tussive activity compared with codeine phosphate” value is on record as “more potent than that of codeine phosphate”.

Take `Cl.Cl.O=C(c1ccccc1)C(c1ccccc1)N1CCN(Cc2ccccc2)CC1` (racemic) [compound 2, dl-2-Phenyl-2-(4-benzylpiperazin-1-yl)acetophenone dihydrochloride, reference compound]: the ED50 in the test on male mice of ddN strain is above 320 mg/kg.

The compound `COc1ccc(CN2CCN([C@H](c3ccccc3)[C@@H](O)c3ccc(Cl)cc3)CC2)cc1` (relative stereo) [Test Compound A, dl-Erythro-1-(p-chlorophenyl)-2-phenyl-2-[4-(p-methoxybenzyl)piperazin-1-yl]ethanol dihydrochloride] showed an ED50 in the test on female mice of 49.9 mg/kg.

On to `COc1ccc(CN2CCN([C@H](c3ccccc3Cl)[C@@H](O)c3ccccc3)CC2)cc1` (relative stereo) [Test Compound B, dl-Erythro-1-phenyl-2-(o-chlorophenyl)-2-[4-(p-methoxybenzyl)piperazin-1-yl]ethanol dihydrochloride], for which the ED50 with female mice came out at 45.1 mg/kg; with male mice of ddN strain, 55.5 mg/kg.

Consider `COc1ccc(CN2CCN([C@H](c3ccccc3)[C@@H](O)c3cccc(C)c3)CC2)cc1` (relative stereo) [Test Compound G, dl-erythro-1-(m-tolyl)-2-phenyl-2-[4-(p-methoxybenzyl)piperazine-1-yl]ethanol dihydrochloride], for which, in the test on Male guinea-pigs, the anti-tussive activity result is recorded as “excellent anti-tussive activity in a dose of 5-40 mg/kg” and the “anti-tussive activity compared with codeine phosphate” value is given as “comparable with that of codeine phosphate”.

Consider `Cc1c(N(C)C)c(=O)n(-c2ccccc2)n1C` [compound 3, Aminopyrine, reference compound], for which the ED50 in the test with female mice turned out to be 53.3 mg/kg; in the test with male mice of ddN strain, 233 mg/kg.

As for `COc1ccc(CN2CCN([C@H](c3ccccc3OC)[C@@H](O)c3ccccc3)CC2)cc1` (relative stereo) [Test Compound C, dl-Erythro-1-phenyl-2-(o-methoxyphenyl)-2-[4-(p-methoxybenzyl)piperazin-1-yl]ethanol dihydrochloride], the values for the ED50 in the test with female mice and in the test with male mice of ddN strain were 28.6 mg/kg and 32.5 mg/kg, respectively.

With `CN1CCN([C@H](c2ccccc2)[C@@H](O)c2ccccc2)CC1` (relative stereo) [compound 1, dl-Erythro-1,2-diphenyl-2-(4-methylpiperazin-1-yl)ethanol dihydrochloride, reference compound], the “Analgesic ED50 value, D'Amour-Smith method” value in the test with male mice of ddN strain was “inactive”.
